Reference: PMC4834188, “Benzyl-1,2,4-triazoles as CB1 Cannabinoid Receptor Ligands: Preparation and In Vitro Pharmacological Evaluation” (International Journal of Medicinal Chemistry, 2016)
“Also recorded” adds a separate entry of the source.

What was measured:
CB1R [1] = target: T1, CB1R (Rattus norvegicus, UniProt P20272); test: CB1R radioligand binding assay versus [3H]-SR141716A in rat cerebellar membranes; conditions: for CB1R affinity (in words): radioligand not given; for Ki: radioligand [3H]-SR141716, mean ± standard error, three independent experiments in triplicate, read-out: K i (nM) CB1R versus [^3H]-SR141617
T1 construct: from tissue; host or cells: rat cerebellum (membranes)
Text: (§1) Radioligand Binding Assays. […] Competitive radioligand binding assays have been used to evaluate the affinity of selected synthetized triazoles to CB1R in rat cerebellar membranes.

CB1R [2] = target: T1, CB1R; test: CB1R radioligand binding assay versus [3H]-WIN552122 in rat cerebellar membranes
Text: as §1

obese animals = system: obese animals; design: method as in PMID 16750544, PMID 18426510, PMID 21951309; conditions: cited from earlier work

T1 sequence (P20272 whole entry): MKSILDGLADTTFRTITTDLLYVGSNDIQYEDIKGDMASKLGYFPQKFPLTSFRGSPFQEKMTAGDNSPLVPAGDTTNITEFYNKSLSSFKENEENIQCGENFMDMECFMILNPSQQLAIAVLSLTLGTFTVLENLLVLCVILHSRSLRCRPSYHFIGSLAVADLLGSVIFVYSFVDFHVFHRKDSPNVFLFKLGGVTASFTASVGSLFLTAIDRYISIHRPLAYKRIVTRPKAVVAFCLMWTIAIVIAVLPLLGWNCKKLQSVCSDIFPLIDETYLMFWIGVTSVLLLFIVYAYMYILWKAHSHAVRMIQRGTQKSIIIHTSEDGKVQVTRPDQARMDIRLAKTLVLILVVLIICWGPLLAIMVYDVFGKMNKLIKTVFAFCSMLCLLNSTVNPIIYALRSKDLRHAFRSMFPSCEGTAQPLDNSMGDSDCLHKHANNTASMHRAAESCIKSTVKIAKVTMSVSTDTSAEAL

Compound	CB1R affinity (in words) (CB1R [1])	melting point	also measured
CCCCCCCc1nc(-c2ccccc2)nn1Cc1ccccc1 [Compound 7a, 1-Benzyl-5-heptyl-3-phenyl-1H-1,2,4-triazole]	moderate CB1R affinity		
CCCCCCCc1nc(-c2ccccc2)nn1Cc1ccc(Cl)cc1 [Compound 8a, 1-(4-Chlorobenzyl)-5-heptyl-3-phenyl-1H-1,2,4-triazole]	moderate CB1R affinity		
CCCCCCCc1nc(-c2ccc(Cl)cc2)nn1Cc1ccccc1 [Compound 10a, 1-Benzyl-3-(4-chlorophenyl)-5-heptyl-1H-1,2,4-triazole]	moderate CB1R affinity		
CCCCCCCc1nc(-c2ccc(Cl)cc2)nn1Cc1ccc(Cl)cc1 [Compound 11a, 1-(4-Chlorobenzyl)-3-(4-chlorophenyl)-5-heptyl-1H-1,2,4-triazole]	moderate CB1R affinity		
CCCCCCCc1nc(-c2ccc(Cl)cc2)nn1Cc1ccc(Cl)cc1Cl [Compound 12a, 3-(4-Chlorophenyl)-1-(2,4-dichlorobenzyl)-5-heptyl-1H-1,2,4-triazole]	CB1R affinity in the nanomolar range; also recorded: high affinity for CB1R		Ki (CB1R [1]): 13.9 nM; K i (nM) CB1R versus [^3H]-WIN552122 (CB1R [2]; radioligand [3H]-WIN552122, mean ± standard error, three independent experiments in triplicate): 323 nM
CCCCCCCc1nc(-c2cc[n+](C)cc2)nn1Cc1ccc(Cl)cc1Cl.[I-] [Compound 18, 4-[1-(2,4-Dichlorobenzyl)-5-heptyl-1H-1,2,4-triazol-3-yl]-1-methylpyridinium Iodide]		136 to 138 °C	
CCCCCCc1nc(-c2ccc(Cl)cc2)n(-c2ccc(Cl)cc2Cl)n1 [LH21, 5-(4-chlorophenyl)-1-(2,4-dichlorophenyl)-3-hexyl-1H-1,2,4-triazole, reference compound]			Ki (CB1R [1]): 856 ± 296 nM; antiobesity activity in in vivo assays (obese animals): exhibited antiobesity activity; Ki (CB1R [2]; read-out: K i (nM) CB1R versus [^3H]-WIN552122, radioligand [3H]-WIN552122, mean ± standard error, three independent experiments in triplicate): 748 ± 193 nM

Now from value to molecule, other results behind:

CB1R affinity (in words) (CB1R [1])	melting point	Compound	also measured
	70 to 73 °C	CCCCCCCc1nc(-c2ccccc2)n(Cc2ccc(Cl)cc2Cl)n1 [Compound 9b, 1-(2,4-Dichloro-benzyl)-3-heptyl-5-phenyl-1H-1,2,4-triazole]	
	97 to 99 °C	CCCCCCCc1nc(-c2ccc(Cl)cc2)n(Cc2ccc(Cl)cc2Cl)n1 [Compound 12b, 5-(4-Chlorophenyl)-1-(2,4-dichlorobenzyl)-3-heptyl-1H-1,2,4-triazole]	
	104 to 105 °C	CCCCCCCc1nc(-c2ccncc2)n(Cc2ccc(Cl)cc2Cl)n1 [Compound 15b, 4-[1-(2,4-Dichlorobenzyl)-3-heptyl-1H-1,2,4-triazol-5-yl]pyridine]	
